Measured values taken from patent US20060251638A1, “Cytoprotection through the use of hif hydroxylase inhibitors” (priority 2003, published 2006).

Tests used:
[1] = test system: gene encoding adrenomedullin; test: Adrenomedullin gene expression in Hep3B cells (microarray); format: cell-based, human; conditions: 25 μM compound, 6 hrs, average of two determinations
Experimental: Hep3B cells (ATCC No. HB-8064) were grown in DMEM containing 8% fetal bovine serum. Hep3B cells were seeded into 6-well culture dishes at ˜500,000 cells per well. After 8 hours, the media was changed to DMEM containing 0.5% fetal bovine serum and the cells were incubated for an additional 16 hours. Compound A, compound B, compound C, compound G, or compound H was added to the cells (25 μM final concentration) and the cells were incubated for various times. Control cells were incubated with vehicle (DMSO) with no compound treatment. Harvested cells were assessed for cell viability (GUAVA), or added to RNA extraction buffer (RNeasy, Qiagen) and stored at −20° C. for subsequent RNA purification.
RNA was precipitated in 0.3 M sodium acetate (pH 5.2), 50 ng/ml glycogen, and 2.5 volumes of ethanol for one hour at −20° C. Samples were centrifuged and pellets were washed with cold 80% ethanol, dried, and resuspend in water. Double stranded cDNA was synthesized using a T7-(dT)24 first strand primer (Affymetrix, Inc., Santa Clara Calif.) and the SUPERSCRIPT CHOICE system (Invitrogen) according to the manufacturer's instructions. The final cDNA was extracted with an equal volume of 25:24:1 phenol:chloroform:isoamyl alcohol using a PHASE LOCK GEL insert (Brinkman, Inc., Westbury N.Y.). The aqueous phase was collected and cDNA was precipitated using 0.5 volumes of 7.5 M ammonium acetate and 2.5 volumes of ethanol. Alternatively, cDNA was purified using the GENECHIP sample cleanup module (Affymetrix) according to the manufacturer's instructions.
Biotin-labeled cRNA was synthesized from the cDNA in an in vitro […] (IVT) reaction using a BIOARRAY HighYield RNA transcript labeling kit (Enzo Diagnostics, Inc., Farmingdale N.Y.) according to the manufacturer's instructions. Final labeled product was purified and fragmented using the GENECHIP sample cleanup module (Affymetrix) according to the manufacturer's instructions.
Hybridization cocktail was prepared by bringing 5 μg probe to 100 μl in 1× hybridization buffer (100 mM MES, 1 M [Na^+], 20 mM EDTA, 0.01% Tween 20), 100 μg/ml herring sperm DNA, 500 μg/ml acetylated BSA, 0.03 nM contol oligo B2 (Affymetrix), and 1× GENECHIP eukaryotic hybridization control (Affymetrix). The cocktail was sequentially incubated at 99° C. for 5 minutes and 45° C. for 5 minutes, and then centrifuged for 5 minutes. The […] array (Affymetrix) was brought to room temperature and then prehybridized with 1× hybridization buffer at 45° C. for 10 minutes with rotation. The buffer was then replaced with 80 μl hybridization cocktail and the array was hybridized for 16 hours at 45° C. at 60 rpm with counter balance. Following hybridization, arrays were washed once with 6×SSPE, 0.1% Tween 20, and then washed and stained using R-phycoerythrin-conjugated streptavidin (Molecular Probes, Eugene Oreg.), goat anti-streptavidin antibody (Vector Laboratories, Burlingame Calif.), and a GENECHIP Fluidics Station 400 instrument (Affymetrix) according to the manufacturer's EukGE-WS2v4 protocol (Affymetrix). Arrays were analyzed using a GENEARRAY scanner (Affymetrix) and Microarray Suite software (Affymetrix).
RNA quality was monitored by capillary electrophoresis (Agilent Bioanalyzer). […] Array performance was analyzed with Affymetrix MicroArray Suite (MAS) software and individual probe sets were assigned “present”, “marginal, and “absent” calls according to software defaults. […]

H9c2 rat cardiomyocytes [2] = test: Intracellular ATP levels and morphology of H9c2 cardiomyocytes under homocysteic acid (HCA) oxidative stress; format: cell-based
Experimental: H9c2 rat cardiomyocytes were incubated with 10 mM homocysteic acid (HCA) in the absence or presence of various concentrations of compound G as indicated for 24 hours. Cell viability was determined by measuring intracellular ATP levels. Quantitation of intracellular ATP levels was performed using the ViaLight Plus™ kit (Cambrex Cat. No. LT17-221) according to the manufacturers instructions.
Phase contrast microscopy of cells treated with HCA correlated with the results shown for intracellular ATP levels in vehicle (DMSO) and compound G treated cells.

H9c2 rat cardiomyocytes [3] = test: Intracellular ATP levels in H9c2 cardiomyocytes after oxygen and glucose deprivation (glucose-free DMEM, 2 mM KCN); format: cell-based; conditions: H9c2, 20 μM pretreatment 24 hours, glucose-free DMEM and 2 mM KCN for 30 minutes; vehicle control 415
Experimental: In similar experiments, H9c2 rat cardiomyocytes were pretreated with either vehicle control (0.5% DMSO) or 20 μM of Compound A, Compound B, Compound C, Compound D, Compound E, Compound F, Compound G, or compound H. After 24 hours, cells were washed with serum-free DMEM and subjected to oxygen and glucose deprivation by incubating the cells in glucose-free DMEM and 2 mM KCN for 30 minutes. Intracellular ATP levels were then determined.

HO-1 protein = HO-1 protein levels in H9c2 cardiomyocytes by ELISA; format: cell-based, rat; conditions: H9c2, 100 μM compound; control 2.86
Experimental: In another series of experiments, H9c2 rat cardiomyocytes were treated with either vehicle control or with various concentrations (1 μM, 3 μM, 10 μM, 30 μM, and 100 μM) of compound C or compound G. Cell lysates were harvested and HO-1 protein levels determined by ELISA according to the manufacturer's instructions (cat # EKS-810; Stressgen, Victoria, BC, Canada). Data shown below in Table 4 represents values obtain with 100 μM compound.

O=C(O)CNC(=O)c1ncc2cc(Oc3ccccc3)ccc2c1O [Compound G, [(4-Hydroxy-7-phenoxy-isoquinoline-3-carbonyl)-amino]-acetic acid]
Adrenomedullin gene expression, fold-increase above non-treated control [1]: 3.278 fold | intracellular ATP levels in the presence of HCA versus vehicle (H9c2 rat cardiomyocytes [2]; H9c2, 10 mM HCA, various concentrations, 24 hours, FIG. 2): dose-dependent increases in intracellular ATP levels | cell morphology by phase contrast microscopy under HCA (H9c2 rat cardiomyocytes [2]; H9c2, HCA, 30 μM compound, FIG. 3): still confluent, appeared less rounded, and maintained a morphology consistent with viable cardiomyoctes | intracellular ATP levels in cells not incubated with HCA (H9c2 rat cardiomyocytes [2]; H9c2, no HCA, data not shown): unchanged | ATP (relative light units) (H9c2 rat cardiomyocytes [3]): 2128.3 relative light units | HO-1 (ng/mg total cell protein) (HO-1 protein): 28.54 ng/mg total cell protein
